Source: patent US5776685A, “Protein kinase C assay” (Joslin Diabetes Center, priority 1996, dated 1998)
“Also recorded” adds a separate entry of the source.

Columns and labels:
[1] = tested on: Saccharomyces cerevisiae strain 334 expressing bovine PKC alpha; assay: Cell doubling time of yeast cultures expressing PKC alpha wild type and mutant cDNAs; type: cell-based; details: 2% galactose; for average cell doubling time: synthetic minimal medium, CD26 and ND153 values phorbol ester-independent
Protocol: FIG. 2 is a graph of cell doubling time of yeast cultures expressing PKC alpha wild type and mutant cDNAs. Freshly saturated cultures expressing control plasmids (Cont.), normal PKC alpha (PKCa) or deletion mutants D172-225, ND153 or CD26 were diluted to low cell densities. Cell growth was followed on a roller at 30 degrees C to measurable cell densities of the logarithmic growth phase at 0.2-0.6 O.D. 600. […] Average doubling times were calculated.
Yeast strains and culture conditions. PKC expression plasmids and YEp51 or YEp52 as controls were introduced into Saccharomyces cerevisiae strain 334 [MAT alpha, pep 4-3, prb1-122, ura 3-52; leu2-3, 112, reg1-501, gal1]by lithium acetate transformation See e.g., Ito et al. 1983, J. Bacterial. 153: 163. Cells were routinely grown at 30 degrees C on a culture roller or shaker in liquid culture or on 1.5% agar plates. The synthetic medium contained 2% glucose and was leucine-free to select for stable propagation of the expression plasmids. Expressing yeast colonies were identified phenotypically by replica plating on medium containing or lacking PMA. Phenol extracts of crude cell lysates were prepared to re-transform Escherichia coli DH5 alpha. PKC mutants were characterized by DNA sequencing and defined plasmids were re-introduces into S. cerevisiae 334. These strains were used in all experiments shown. 50 ml cultures were routinely inoculated from freshly saturated cultures and grown for 16 h to an optical density of 0.4 at O.D.600.
Cell doubling times were measured by O.D.600 reading of liquid cultures in the presence of 2% galactose as shown in FIG. 2 to test whether they correlate with the specific phenotypes (colony size) caused by normal mutant PKC alpha. […] A normal 4 hours doubling time was measured for all constructs in the absence of galactose.

[2] = tested on: Saccharomyces cerevisiae strain 334 expressing bovine PKC alpha; assay: Phenotypic screen of PKC alpha mutant activity by yeast colony size on agar plates; type: cell-based; details: 2% galactose; for yeast colony size: 3 days
Protocol: The phenotypic screen of PKC alpha mutant activity by yeast colony size was performed as follows. […] Plates (9 cm diameter) were photograph after 3 days.
Galactose stimulation of cDNA expression resulted for some PKC forms in specific, decreased yeast colony sizes which were either dependent on or independent of phorbol ester activation after 3 days. […] Microscopically small colonies expressing ND153 grew to visible sizes with rates independently of PMA. Colonies expressing PKC alpha grew even more slowly to visible sizes during continued incubation in the presence of PMA.

[3] = tested on: bovine PKC alpha; assay: [3H]PDBu binding to yeast spheroplasts expressing PKC alpha forms; details: 14 nM [3H]PDBu
Protocol: FIG. 3 is a graph of phorbol ester binding to cells expressing PKC alpha wild type and mutant proteins.
Phorbol ester binding. About 6×10^8 expressing cells were washed twice in 10 mM K-phosphate buffer pH 7.0, 20 mM EDTA, once in 1M sorbitol and were resuspended in 10 ml 10 mM K-phosphate buffer pH 7.0, 1.1M sorbitol, 0.5 mM CaC12. Cells were incubated with 1 U glusulase (beta-glucuronidase/arylsulfatase from Helix pomatia, Boehringer Mannheim) for about 1 hour under shaking at 30 degrees C to remove the cell wall until test cell suspensions cleared in H2 O due to cell lysis.
Both were about 13-fold elevated over background levels of control cells. Similar findings have been reported for PKC overexpression in transfected mammalian fibroblasts. […] The internal deletion of aa 172-225 led to phorbol ester binding levels reduced by 60% compared to normal PKC alpha, a potential consequence of the removal of parts of the C2 domain.

[4] = tested on: bovine PKC alpha; assay: PKC catalytic activity in vitro (phosphorylation of [ser25]PKC19-31 in detergent cell extracts); type: biochemical; details: for PMA and Ca^2+ stimulated mutant PKC activity: Ca^2+: Ca^2+ stimulation of in vitro catalytic activity; for stimulation of catalytic activity by phorbol ester: PMA + phosphatidylserine; for PMA and Ca^2+ stimulated mutant PKC activity: PMA: PMA stimulation, common symbol for in vitro catalytic activity and PMA-mediated increase of cell doubling time; for PMA and Ca^2+ stimulated mutant PKC activity: -: no stimulus (basal), common symbol for in vitro catalytic activity and cell doubling time response
Protocol: FIG. 4 is a graph which compares PKC mutant and wild type catalytic activities in vitro. […] Catalytic activity was stimulated by combinations of phosphatidylserine (PS), the phorbol ester PMA and calcium ions (Ca^2+). PS, open; PMA+PS, solid; Ca^2+ +PS, diagonally striped.
Cell lysis. About 6×10^8 expressing cells were washed in PBS and were resuspended in 1 ml lysis buffer containing 1% Triton X100, 50 mM Hepes pH 7.4, 15-mM NaC1, 5 mM EDTA, 5 mM EGTA, 10 μg/ml pepstatin, 40 μg/ml leupeptin, 10 μg/ml aprotinin and 200 μg/ml PMSF. Cell suspensions mixed with the same volume of acid washed glass beads (450-500 μm) were lysed mechanically by six 30 second vortexing steps interrupted by cooling on ice for at least 30 second in 50 ml screw cap polypropylene tubes. The lysate was cleared by 4,000 g centrifugation for 15 minutes at 4 degrees C and stored at […] for up to several weeks.
PKC catalytic activity. […] Phosphatidylserine in chloroform, with or without PMA was evaporated under N2 to dryness, resuspended in 20 mM Tris pH 7.5, mixed and sonicated at 4 degrees C for 45 seconds before use. To terminate the reaction the sample was placed on phosphocellulose paper (Whatman P81) which was repeatedly washed in 75 mM phosphoric acid. Bound radioactivity was determined by liquid scintillation spectroscopy.

[5] = tested on: Saccharomyces cerevisiae strain 334 expressing bovine PKC alpha; assay: 45Ca2+ uptake into yeast cells expressing PKC alpha forms; type: cell-based; details: for Ca2+ uptake after PMA stimulation over the control cell background: 1 μM PMA; for increase in Ca^2+ uptake (basal): without PMA stimulation, versus control cells
Protocol: FIG. 5 is a graph of the modulation of extracellular Ca2+uptake by PKC alpha wild type and mutants.
^45 Ca^2 + uptake. Expressing yeast cells after 16 h in 2% galactose medium were washed with PBS when reaching 0.5 O.D.600. 10^7 cells were suspended in 100 μl of 50 mM MES pH 6.5, 5 mM MgSO4 and incubated with 1 μM PMA for 1 h at 30 degrees C under shaking on 96-well plates. Subsequently uptake of 2 μCi 45 Ca2+ at 300 μM CaCl2 was measured for 2 hours. Cells were rapidly transferred to Multiscreen filtration microtiter plates (Millipore) and washed four times with 200 μl of 10 mM MES, 10 mM Tris, 35 mM CaC12 pH 6.0. Filters were dried and cell-associated radioactivity was determined by liquid scintillation spectroscopy.
Ca^2+ influx has been reported in response to PKC activation in a variety of eukaryotic cells such as Nitella syncarpa plasmalemma, Aplysia bag cell neurons, rat ventricular myocytes and rat pituitary cells. To test whether the measured catalytic activities and the yeast phenotype correlate with other biological responses mediated by PKC, ^45 Ca^2+ uptake into expressing cells was determined after PMA stimulation. […] These responses are consistent with the catalytic activities and phenotypic responses of the mutants: elevated basal activity of ND153, full and reduced phorbol ester-stimulated activity of normal PKC alpha and D172-225, respectively, and lack of activity for CD26.

[6] = biological target: T1, rat PKC β-1 (Rattus norvegicus, UniProt P68403); assay: PKC beta-1 enzymatic activity in detergent cell extracts; type: biochemical; details: phospholipid dependent
T1 construct: we inserted the complete protein coding cDNA of rat PKC β-1; made in house; host or cells: Saccharomyces cerevisiae strain 334, YEp51 with GAL10 promoter; crude detergent cell extract
Protocol: Duplicate measurements have routinely been made in our experiments. […] The methods described here are for the bovine PKC alpha experiments. The same or similar methods were used in the rat PKC beta-1 experiments.
PKC catalytic activity. PKC catalytic activity was measured as described in Hu et al., 1990, J. Biol. Chem. 265: 13864 by phosphorylation of 3 μg of the specific substrate peptide […] (Seq. ID No. 7) (Gibco, BRL) in the presence of 5 μCi [gamma-32P]ATP (3000 Ci/mmol) in 125 μl of 5-fold diluted cell extract for 30 min. at 25 degrees C with combinations of 160 μg/ml phosphatidylserine (Avanti Polar Lipids, Inc.), 1 μm PMA and 5 mM CaCl2. […] Bound radioactivity was determined by liquid scintillation spectroscopy.
To compare the enzymatic activity of normal and truncated PKC forms, phosphorylation of the PKC-specific substrate [ser^25 ]PKC19-31 a derivative of the pseudosubstrate sequence was measured in detergent cell extracts in response to combinations of phosphatidylserine, the phorbol ester PMA (phorbol-12-myristate-13-acetate), and Ca^2+. In the presence of phosphatidylserine alone only a background level of phosphorylation was detected in all samples including control cells which likely represents the activity of other endogenous yeast protein kinases.

T1 sequence (P68403 2-671): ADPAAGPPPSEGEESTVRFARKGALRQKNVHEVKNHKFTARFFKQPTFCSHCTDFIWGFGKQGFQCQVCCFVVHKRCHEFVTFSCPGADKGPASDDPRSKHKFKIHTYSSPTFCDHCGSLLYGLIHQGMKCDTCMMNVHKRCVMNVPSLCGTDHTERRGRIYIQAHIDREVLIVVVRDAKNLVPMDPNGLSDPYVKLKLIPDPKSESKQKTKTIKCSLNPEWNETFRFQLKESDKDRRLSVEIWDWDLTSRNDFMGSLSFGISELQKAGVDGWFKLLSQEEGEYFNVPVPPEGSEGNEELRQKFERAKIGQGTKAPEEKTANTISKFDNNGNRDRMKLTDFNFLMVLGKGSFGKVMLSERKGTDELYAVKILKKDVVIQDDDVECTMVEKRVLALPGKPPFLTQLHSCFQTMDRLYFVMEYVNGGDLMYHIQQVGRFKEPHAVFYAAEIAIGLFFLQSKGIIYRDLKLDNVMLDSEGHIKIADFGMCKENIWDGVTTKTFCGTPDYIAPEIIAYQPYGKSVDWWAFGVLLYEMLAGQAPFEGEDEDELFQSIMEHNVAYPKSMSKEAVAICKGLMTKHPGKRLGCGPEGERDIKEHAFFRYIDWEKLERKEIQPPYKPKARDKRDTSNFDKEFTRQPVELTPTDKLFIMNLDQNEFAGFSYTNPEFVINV

Row | Substance | average cell doubling time ([1]; absence of phorbol ester) [h] | yeast colony size / phenotype ([2]; independent of phorbol ester) | [3H]PDBu binding level over background levels of control cells [3] | PMA and Ca^2+ stimulated mutant PKC activity: Ca^2+ [4] | stimulation of catalytic activity by phorbol ester [4] | PMA and Ca^2+ stimulated mutant PKC activity: PMA [4] | PMA and Ca^2+ stimulated mutant PKC activity: - [4] | catalytic activity in the presence of phosphatidylserine alone (elevated level) [4] | Ca2+ uptake after PMA stimulation over the control cell background [5] | increase in Ca^2+ uptake (basal) [5] [fold] | increase in the cell doubling time ([1]; absence of phorbol ester) [%] | cell doubling time ([1]; phorbol ester stimulation (1 μM PMA)) [h] | yeast colony size ([2]; absence of phorbol ester) | yeast colony size ([2]; phorbol ester activation (1 uM PMA)) | stimulation of PKC β-1 catalytic activity [6]
1 | ND153: PKCa deletion of aa 1-153 | 12 | microscopically small colonies independent of phorbol ester activation | virtually background | ++ | PMA-unresponsive | + | + | 10 fold | unaffected by phorbol ester | ~3 |  |  |  |  | 
2 | PKC alpha: bovine protein kinase C alpha, full length, expressed in yeast | 6 |  | about 13 fold | ++ | more than 20 fold | ++ | - | no catalytic activity was detected | up to 4 fold | 1.4 | 50 | 16 | reduced colony sizes | substantially reduced yeast colony size; also recorded: substantially further decreased to microscopically small sizes | 
3 | diacylglycerol |  |  |  |  |  |  |  |  |  |  |  |  |  |  | stimulated by diacylglycerol similar to PMA
